Reference: PubChem BioAssay AID248 (DTP/NCI, 2004)
Values joined by “and” are separate entries in the source; they are usually repeats but may differ in a detail not shown here. Identical values can stand only once. Inconclusive results and toxic doses are left out. Rule as the data show it: active = T/C of 150% or more; inactive = T/C below 125%.

Tested on: L1210 leukemia ip in BDF1 mice, survival T/C
Test: NCI In Vivo Anticancer Drug Screen. Data for tumor model L1210 Leukemia (intraperitoneal) in B6D2F1 (BDF1) mice
Conditions: endpoint: mean survival time, higher = longer survival
Outline: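 Transplanted-tumor mice were given test agent; controls received vehicle only. Survival readings from the two groups were divided (treated over control).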

[1] = dose: 100.0 mg/kg/injection, schedule: Q01DX009 (ip), vehicle: Klucel (hydroxypropylcellulose) (HPC)
[2] = dose: 200.0 mg/kg/injection, schedule: Q01DX009 (ip), vehicle: Klucel (hydroxypropylcellulose) (HPC)
[3] = dose: 400.0 mg/kg/injection, schedule: Q01DX009 (ip), vehicle: Klucel (hydroxypropylcellulose) (HPC)
[4] = dose: 100.0 mg/kg/injection, schedule: Q01DX009 (ip), vehicle: saline
[5] = dose: 200.0 mg/kg/injection, schedule: Q01DX009 (ip), vehicle: saline
[6] = dose: 50.0 mg/kg/injection, schedule: Q01DX009 (ip), vehicle: saline
[7] = dose: 100.0 mg/kg/injection, schedule: Q04DX003 (ip), vehicle: saline with Tween-80
[8] = dose: 200.0 mg/kg/injection, schedule: Q04DX003 (ip), vehicle: saline with Tween-80
[9] = dose: 400.0 mg/kg/injection, schedule: Q04DX003 (ip), vehicle: saline with Tween-80
[10] = dose: 100.0 mg/kg/injection, schedule: Q01DX001 (ip), vehicle: saline
[11] = dose: 200.0 mg/kg/injection, schedule: Q01DX001 (ip), vehicle: saline
[12] = dose: 400.0 mg/kg/injection, schedule: Q01DX001 (ip), vehicle: saline
[13] = dose: 200.0 mg/kg/injection, schedule: Q01DX009 (ip), vehicle: saline with Tween-80

Measured: T/C

O=C(C[n+]1cccc(Cl)c1)c1ccccc1
inactive: dose: 0.5 mg/kg/injection, schedule: Q04DX003 (ip), vehicle: saline 113 % of control | dose: 1.0 mg/kg/injection, schedule: Q04DX003 (ip), vehicle: saline 105 % of control | dose: 2.0 mg/kg/injection, schedule: Q04DX003 (ip), vehicle: saline 102 % of control

COc1cccc(N=CC(=O)c2ccc(C)cc2)c1
inactive: dose: 75.0 mg/kg/injection, schedule: Q04DX003 (ip), vehicle: Klucel (hydroxypropylcellulose) (HPC) 95 % of control | dose: 150.0 mg/kg/injection, schedule: Q04DX003 (ip), vehicle: Klucel (hydroxypropylcellulose) (HPC) 89 % of control

COc1ccc(C)cc1NC(=O)c1cccc(F)c1
inactive: [1] 106 % of control | [2] 101 % of control | [3] 97 % of control

CC1CC(C(C)(C)C)CCC1S (stereo not given)
inactive: [4] 95 % of control | [5] 88 % of control

Nc1ccc(Cc2ccc(Cl)cc2)cc1
inactive: dose: 75.0 mg/kg/injection, schedule: Q01DX001 (ip), vehicle: acetone 94 % of control | dose: 150.0 mg/kg/injection, schedule: Q01DX001 (ip), vehicle: acetone 94 % of control | dose: 300.0 mg/kg/injection, schedule: Q01DX001 (ip), vehicle: acetone 91 % of control

CCOC(=O)Nc1ccc(SC)cc1
inactive: [4] 94 % of control | [5] 100 % of control | dose: 400.0 mg/kg/injection, schedule: Q01DX009 (ip), vehicle: saline 103 % of control

CCC/C=C/CC1CCCCC1
inactive: [6] 97 % of control | [4] 97 % of control | [5] 102 % of control

Cc1cc(O)c(O)c([N+](=O)[O-])c1
inactive: [7] 96 % of control | [8] 92 % of control | [9] 101 % of control

COCC(=O)CC(C)=O
inactive: [1] 98 % of control | dose: 100.0 mg/kg/injection, schedule: Q04DX003 (ip), vehicle: Klucel (hydroxypropylcellulose) (HPC) 100 % of control | [2] 106 % of control | dose: 200.0 mg/kg/injection, schedule: Q04DX003 (ip), vehicle: Klucel (hydroxypropylcellulose) (HPC) 95 % of control | [3] 101 % of control | dose: 400.0 mg/kg/injection, schedule: Q04DX003 (ip), vehicle: Klucel (hydroxypropylcellulose) (HPC) 101 % of control

O=C(NC1CCCCC1)NS(=O)(=O)c1ccc2c(c1)CCC2
inactive: [10] 100 % of control | [11] 102 % of control | [12] 96 % of control

NC(Cc1cnc(N=Nc2ccc(N=Nc3ncc(CC(N)C(=O)O)[nH]3)cc2)[nH]1)C(=O)O (stereo not given)
inactive: dose: 50.0 mg/kg/injection, schedule: Q01DX009 (ip), vehicle: Klucel (hydroxypropylcellulose) (HPC) 89 % of control | [1] 89 % of control

CN(N=O)C(=O)NC1C(CO)OC2OC(C)(C)OC21 (stereo not given)
inactive: dose: 100.0 mg/kg/injection, schedule: Q01DX009 (ip), vehicle: saline sonified 124 % of control | dose: 400.0 mg/kg/injection, schedule: Q01DX009 (ip), vehicle: saline sonified 119 % of control

Nc1ccn(C2OC(CO)C(OP(=O)(O)O)C2O)c(=O)n1 (stereo not given)
inactive: dose: 40.0 mg/kg/injection, schedule: Q01DX001 (ip), vehicle: water 102 % of control | dose: 80.0 mg/kg/injection, schedule: Q01DX001 (ip), vehicle: water 97 % of control

CCCCCCCCCCCCCCCCSc1ccc(Br)cc1
inactive: [7] 92 % of control | [8] 102 % of control | [9] 97 % of control

Cc1ccccc1OB(Oc1ccccc1C)Oc1ccccc1C
inactive: [10] 101 % of control | [11] 109 % of control | [12] 95 % of control

CC1=CC(=O)N(NC(N)=O)C1=O
inactive: [7] 94 % of control | [13] 90 % of control | [8] 102 % of control | [9] 105 % of control

CSCCC(C)C
inactive: dose: 50.0 mg/kg/injection, schedule: Q01DX009 (ip), vehicle: saline with Tween-80 112 % of control | dose: 100.0 mg/kg/injection, schedule: Q01DX009 (ip), vehicle: saline with Tween-80 106 % of control | [7] 95 % of control | [13] 95 % of control | [8] 103 % of control

Oc1ccc(CNCCNCCNCc2ccc(O)cc2)cc1
inactive: dose: 12.5 mg/kg/injection, schedule: Q01DX009 (ip), vehicle: saline 87 % of control | dose: 25.0 mg/kg/injection, schedule: Q01DX009 (ip), vehicle: saline 102 % of control | dose: 25.0 mg/kg/injection, schedule: Q04DX003 (ip), vehicle: saline 110 % of control | [6] 93 % of control | dose: 50.0 mg/kg/injection, schedule: Q04DX003 (ip), vehicle: saline 95 % of control | [4] 102 % of control and 92 % of control | dose: 100.0 mg/kg/injection, schedule: Q04DX003 (ip), vehicle: saline 98 % of control and 92 % of control | [5] 105 % of control
